Legend:
[1] = tested on: K-Ras G12V responder T cells; assay: IFN-γ ELISPOT: peptide-loaded HLA-A*11+ human PBMCs co-cultured with K-Ras G12V responder T cells; type: cell-based; settings: for IFN-γ expressing K-Ras-G12V responder T cells upon co-culture: HLA-A*11+ human PBMCs SQZ-loaded with 100 μM SLP; for IFN-γ secretion by K-Ras-G12V responder T cells upon co-culture: Example 4, FIG. 4, HLA-A*11+ human PBMCs (donor 296) SQZ-loaded with 100 μM SLP
Method: (§1) Human PBMCs from HLA-A*11^+ donor (donor 296) were prepared at a density of 10×10^6/mL, SQZ processed at room temperature through a constriction of 4.5 μm width, 10 μm length and 70 μm depth at 60 psi with 100 μM of the respective K-Ras synthetic long peptide (G12V^1-16, G12V^2-19) or with vehicle control (DMSO) in RPMI medium. Following SQZ-processing, the SQZ-loaded PMBCs were centrifuged, and the supernatant was discarded. The cells were subsequently washed once in R10 medium (RPMI+10% FCS+1% Pen/Strep), then washed twice in CTL medium (supplemented with 1% glutamine), before resuspension in fresh CTL medium (supplemented with 1% glutamine).
(§2) 2×10^5 SQZ-loaded PBMCs were then placed in co-culture with 5×10^4 K-Ras G12V responder T cells (generated in transgenic mice) in an IFN-γ ELISPOT plate. As a positive control, 10 μM K-Ras G12V^7-16 peptide containing the minimal epitope was added directly to untreated PBMCs and responder cells in the ELISPOT plate (peptide spike). The plate was incubated overnight at 37° C. and then developed/quantified according to manufacturer's instructions.
as §1, with “donor” for “donor (donor 296)”, “constriction with” for “constriction of”, “peptide (K-Ras G12V^3-17, K-Ras G12V^3-42)” for “peptide (G12V^1-16, G12V^2-19)”, “medium. An irrelevant synthetic long peptide (HPV-E7.6) was used as a negative control.” for “medium.”
as §1, with “donor” for “donor (donor 296)”, “10× 10^6/mL,” for “10×10^6/mL,”, “(wild type K-Ras^1-16, G12V^1-16, wild type K-Ras^2-22, or G12V^2-22)” for “(G12V^1-16, G12V^2-19)”
as §1, with “donor” for “donor (donor 296)”, “of a single” for “of the respective”, “peptide (G12V^1-16” for “peptide (G12V^1-16, G12V^2-19)”, “or G12V^2-19), or a combination of two K-Ras synthetic long peptides which are each at 100 μM (G12V^1-16 plus G12D^1-16 or G12V^2-19 plus G12D^1-16) or” for “or with”, “glutamine). […]” for “glutamine).”

[2] = tested on: K-Ras G12V responder T cells; assay: as above; type: cell-based
[3] = tested on: K-Ras G12D responder T cells; assay: IFN-γ ELISPOT: peptide-loaded HLA-A*11+ human PBMCs co-cultured with K-Ras G12D responder T cells; type: cell-based, transgenic mice; settings: Example 2, FIG. 2; HLA-A*11+ human PBMCs SQZ-loaded with 100 μM SLP; compared to vehicle control
Method: as §1, with “donor” for “donor (donor 296)”, “and SQZ-processed” for “SQZ processed”, “K-Ras G12D” for “K-Ras”, “(either G12D^1-16, G12D^2-19, G12D^2-22, G12D^2-29)” for “(G12V^1-16, G12V^2-19)”, “PBMCs” for “PMBCs”
as §2, with “G12D” for “G12V”, “G12D^7-16” for “G12V^7-16”
as §1, with “donor” for “donor (donor 296)”, “10×10^6/mL, and” for “10×10^6/mL,”, “(either wild type K-Ras^1-16 or K-Ras-G12D^1-16)” for “(G12V^1-16, G12V^2-19)”, “glutamine). […]” for “glutamine).”
as §1, with “339)” for “296)”, “(either wild type K-Ras^2-22 or K-Ras G12D^2-22)” for “(G12V^1-16, G12V^2-19)”, “glutamine). […]” for “glutamine).”
2×10^5 of either the SQZ-loaded PBMCs (SQZ-G12D) or SLP-incubated PBMCs (Endo-G12D), or an equal volume of the fluid phase solution (FF-G12D) were then placed in co-culture with 5×10^4 K-Ras G12D responder T cells (generated in transgenic mice) in an IFN—Y ELISPOT plate. As a positive control, 10 μM K-Ras G12D^7-16 peptide containing the minimal epitope was added directly to untreated PBMCs and responder cells in the ELISPOT plate (spike). 10 μM wild type K-Ras^7-16 peptide was added to PBMCs and responder as another […] (spike). The plate was incubated overnight at 37° C. and then developed/quantified according to manufacturer's instructions.

[4] = Example 6, FIG. 6, compared to vehicle control
[5] = Example 8, FIG. 8, HLA-A*11+ human PBMCs SQZ-loaded with one SLP or a combination of two SLPs, each at 100 μM

Substance | IFN-γ expressing K-Ras-G12V responder T cells upon co-culture ([1]; Example 5, FIG. 5) | IFN-γ secretion by K-Ras-G12V responder T cells upon co-culture [1] | IFN-γ expressing K-Ras-G12V responder T cells upon co-culture [1, 4] | IFN-γ expressing K-Ras-G12V responder T cells upon co-culture [2, 5] | other results
EYKLVVVGAVGVGKS [G12V^3-17, K-Ras G12V synthetic long peptide, residues 3-17] | significant increases |  |  |  | IFN-γ expressing K-Ras-G12V responder T cells upon co-culture ([2]; Example 5, FIG. 5, HLA-A*11+ human PBMCs SQZ-loaded with 100 μM SLP, listed as K-Ras-G12V^3-17): increased amount
EYKLVVVGAVGVGKSALTIQLIQNHFVDEYDPTIEDSYRK [G12V^3-42, K-Ras G12V synthetic long peptide, residues 3-42] | significant increases |  |  |  | IFN-γ expressing K-Ras-G12V responder T cells upon co-culture ([2]; Example 5, FIG. 5, HLA-A*11+ human PBMCs SQZ-loaded with 100 μM SLP, listed as K-Ras-G12V^3-42): increased amount
MTEYKLVVVGAVGVGK [G12V^1-16, K-Ras G12V synthetic long peptide, residues 1-16] |  | significantly increased | significant increases | significant increases | IFN-γ secretion by K-Ras-G12V responder T cells upon co-culture ([1]; listed as K-Ras-G12V^1-16): increased amount; IFN-γ expressing K-Ras-G12V responder T cells upon co-culture ([1]; Example 6, FIG. 6, compared to vehicle control, listed as K-Ras-G12V^1-16): increased amount
TEYKLVVVGAVGVGKSAL [G12V^2-19, K-Ras G12V synthetic long peptide, residues 2-19] |  | significantly increased |  | significant increases | IFN-γ secretion by K-Ras-G12V responder T cells upon co-culture ([1]; listed as K-Ras-G12V^2-19): increased amount
wild type K-Ras^1-16: wild type K-Ras synthetic long peptide, residues 1-16; mutation-specificity comparator (MTEYKLVVVGAGGVGK; UniProt P01116 1-16, looked up, fragment) [reference compound] |  |  | did not elicit increases |  | IFN-γ expressing K-Ras-G12D responder T cells upon co-culture [3]: did not elicit increases

Source: patent US20250255961A1, “METHODS TO STIMULATE IMMUNE RESPONSES TO MUTANT RAS USING NUCLEATED CELLS” (STEMCELL TECHNOLOGIES CANADA INC., priority 2020, published 2025)
